Results reported in patent publication US9820986B2, “Glycopeptide compositions” (TAIWAN HOPAZ CHEMS, MFG. CO., LTD., priority 2005, dated 2017).

Experiments:
[1] = system: bone; assay: Bone scintographic imaging studies; type: in vivo, normal female Fischer 344 rats; conditions: 99mTc-labeled, 300 μCi, i.v.
[2] = Renal clearance of pamidronate; conditions: in vivo
[3] = system: tumor; assay: Tumor response to paclitaxel treatment, imaged with 99mTc-glycopeptide; type: in vivo, rats; conditions: paclitaxel 40 mg/kg iv
Method: To assess anti-angiogenic treatment response, rats were treated with paclitaxel (40 mg/kg,iv), followed by imaging with ^99mTc-glycopeptide on day 4. Tumor uptake and in situ hybridization (ISH) and TUNEL assays were conducted pre- and post-paclitaxel treatment.

| renal clearance [2] | Structure (SMILES) | bone targeting [1] | tumor progression ([3]; day 4, compared to 99mTc-glycopeptide baseline) | tumor necrosis ([3]; post-treatment) |
| --- | --- | --- | --- | --- |
| quick renal clearance | NCCC(O)(P(=O)(O)O)P(=O)(O)O [Pamidronate] | targets bone poorly |  |  |
|  | CC(=O)O[C@H]1C(=O)[C@@]2(C)[C@H]([C@H](OC(=O)c3ccccc3)[C@]3(O)C[C@H](OC(=O)[C@H](O)[C@@H](NC(=O)c4ccccc4)c4ccccc4)C(C)=C1C3(C)C)[C@]1(OC(C)=O)CO[C@@H]1C[C@@H]2O [paclitaxel] |  | no marked tumor progression | clearly seen |
